In patent US20160376237A1, “NOVEL PYRIDINE DERIVATIVES” (Hoffmann-La Roche Inc., priority 2014, published 2016) one finds EC50 data, which are given here for 28 compounds.

The first assay deals with T1, human CB2 receptors (Homo sapiens, UniProt P34972).
T1 construct: expressed in transfected cells; host or cells: CHO cells
T1 sequence (P34972 whole entry): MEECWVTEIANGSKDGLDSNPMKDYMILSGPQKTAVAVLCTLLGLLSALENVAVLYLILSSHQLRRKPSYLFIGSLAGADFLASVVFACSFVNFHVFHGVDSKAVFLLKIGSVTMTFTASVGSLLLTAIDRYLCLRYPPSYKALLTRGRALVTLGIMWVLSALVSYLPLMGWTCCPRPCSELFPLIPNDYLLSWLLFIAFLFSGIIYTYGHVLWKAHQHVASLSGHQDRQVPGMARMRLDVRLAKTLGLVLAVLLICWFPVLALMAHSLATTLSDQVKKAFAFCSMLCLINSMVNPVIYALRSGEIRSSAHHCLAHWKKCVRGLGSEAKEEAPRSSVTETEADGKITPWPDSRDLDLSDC
Kind of assay: cAMP assay. The assay is classed as cell-based.
Conditions: not given
As for the experimental part:
CHO cells expressing human CB1 or CB2 receptors are seeded 17-24 hours prior to the experiment 50.000 cells per well in a black 96 well plate with flat clear bottom (Corning Costar #3904) in DMEM (Invitrogen No. 31331), 1×HT supplement, with 10% fetal calf serum and incubated at 5% CO2 and 37° C. in a humidified incubator. The growth medium was exchanged with Krebs Ringer Bicarbonate buffer with 1 mM IBMX and incubated at 30° C. for 30 min. Compounds were added to a final assay volume of 100 μl and incubated for 30 min at 30° C. Using the cAMP-Nano-TRF detection kit the assay (Roche Diagnostics) was stopped by the addition of 50 μl lysis reagent (Tris, NaCl, 1.5% Triton X100, 2.5% NP40, 10% NaN3) and 50 μl detection solutions ([…] mAb Alexa700-cAMP 1:[…] Ruthenium-2-AHA-cAMP) and shaken for 2 h at room temperature. The time-resolved energy transfer is measured by a TRF reader (Evotec Technologies GmbH), equipped with a ND:YAG laser as excitation source. The plate is measured twice with the excitation at 355 nm and at the emission with a delay of 100 ns and a gate of 100 ns, total exposure time 10 s at 730 (bandwidth 30 nm) or 645 nm (bandwidth 75 nm), respectively. The FRET signal is calculated as follows: FRET=T730-Alexa730-P(T645-B645) with P=Ru730-B730/Ru645-B645, where T730 is the test well measured at 730 nM, T645 is the test well measured at 645 nm, B730 and B645 are the buffer controls at 730 nm and 645 nm, respectively. cAMP content is determined from the function of a standard curve spanning from […] to 0.13 nM cAMP.
EC50 values were determined using Activity Base analysis (ID Business Solution, Limited).
The compound `CC(C)C[C@H](NC(=O)c1ccc(OCC2CC2)c(-c2ccc(Cl)cc2)n1)C(N)=O` [Example 42, N-[(2S)-1-Amino-4-methyl-1-oxopentan-2-yl]-6-(4-chlorophenyl)-5-(cyclopropylmethoxy)pyridine-2-carboxamide] yielded an EC50 of 4.44 nM.

`CCOC(=O)C(CC)(CC)NC(=O)c1ccc(N2CC(OC)C2)c(OCC2CC2)n1` [Example 20, Ethyl 2-[[6-(cyclopropylmethoxy)-5-(3-methoxyazetidin-1-yl)pyridine-2-carbonyl]amino]-2-ethylbutanoate] showed a half-maximal effective concentration (EC50) of 6.5 nM. Same read-out and setting: in the case of `CC(C)C[C@H](NC(=O)c1ccc(N2CCC(O)(C(F)(F)F)C2)c(OCC2CC2)n1)C(N)=O` (stereo partly drawn) [Example 29, N-[(2S)-1-Amino-4-methyl-1-oxopentan-2-yl]-6-(cyclopropylmethoxy)-5-[3-hydroxy-3-(trifluoromethyl)pyrrolidin-1-yl]pyridine-2-carboxamide] it was 1890 nM. Same read-out and setting: with `CCC(CC)(NC(=O)c1ccc(OCC2CC2)c(-c2cccc(Cl)c2)n1)C(=O)NC` [Example 7, 6-(3-Chlorophenyl)-5-(cyclopropylmethoxy)-N-[3-(methylcarbamoyl)pentan-3-yl]pyridine-2-carboxamide] the figure was 51.3 nM; with `CCC(CC)(NC(=O)c1ccc(N2CC(F)(C3CC3)C2)c(OCC2CC2)n1)C(=O)NCCCF` [Example 41, 5-(3-Cyclopropyl-3-fluoroazetidin-1-yl)-6-(cyclopropylmethoxy)-N-[3-(3-fluoropropylcarbamoyl)pentan-3-yl]pyridine-2-carboxamide], 669 nM. On the same count and under the same terms, with `CC(C)C[C@H](NC(=O)c1ccc(N2CC(C)(F)C2)c(OCC2CC2)n1)C(N)=O` [Example 33, N-[(2S)-1-Amino-4-methyl-1-oxopentan-2-yl]-6-(cyclopropylmethoxy)-5-(3-fluoro-3-methylazetidin-1-yl)pyridine-2-carboxamide] the figure was 19.6 nM; with `COC(=O)C(C)(C)NC(=O)c1ccc(-c2ccc(Cl)cc2)c(SC)n1` [Example 1, Methyl 2-[[5-(4-chlorophenyl)-6-methylsulfanylpyridine-2-carbonyl]amino]-2-methylpropanoate], 344 nM. As for `Cc1nc([C@H](CC2CC2)NC(=O)c2ccc(OCC3CC3)c(Cl)n2)no1` [Example 18, 6-Chloro-5-(cyclopropylmethoxy)-N-[(1S)-2-cyclopropyl-1-(5-methyl-1,2,4-oxadiazol-3-yl)ethyl]pyridine-2-carboxamide], a half-maximal response (EC50) required 646 nM. The same measure, in the same setting: with `Cc1nc(C(C)(C)NC(=O)c2ccc(OCC3CC3)c(-c3ccc(Cl)cc3)n2)no1` [Example 40, 6-(4-Chlorophenyl)-5-(cyclopropylmethoxy)-N-[2-(5-methyl-1,2,4-oxadiazol-3-yl)propan-2-yl]pyridine-2-carboxamide] the figure was 16.9 nM; with `CC(C)C[C@H](NC(=O)c1ccc(N2CC3(COC3)C2)c(OCC2CC2)n1)C(N)=O` [Example 12, N-[(2S)-1-amino-4-methyl-1-oxopentan-2-yl]-6-(cyclopropylmethoxy)-5-(2-oxa-6-azaspiro[3.3]heptan-6-yl)pyridine-2-carboxamide], 177 nM. The compound `CSCC[C@H](NC(=O)c1ccc(OCC2CC2)c(Cl)n1)C(N)=O` [Example 16, N-[(2S)-1-Amino-4-methylsulfanyl-1-oxobutan-2-yl]-6-chloro-5-(cyclopropylmethoxy)pyridine-2-carboxamide] gave a concentration giving a half-maximal response (EC50) of 973 nM. The same measure, in the same setting: with `COC(=O)C(C)(C)NC(=O)c1ccc(-c2ccc(Cl)cc2)c(OCC2CC2)n1` [Example 2, Methyl 2-[[5-(4-chlorophenyl)-6-(cyclopropylmethoxy)pyridine-2-carbonyl]amino]-2-methylpropanoate] the figure was 48.2 nM; with `CC(C)(NC(=O)c1ccc(-c2ccccc2)c(OCC2CC2)n1)c1ncco1` [Example 5, 6-(Cyclopropylmethoxy)-N-[2-(1,3-oxazol-2-yl)propan-2-yl]-5-phenylpyridine-2-carboxamide], 34.2 nM. Still for that read-out and setting: in the case of `NC(=O)[C@@H]1CC(F)(F)CN1C(=O)c1ccc(OCC2CC2)c(-c2ccc(Cl)cc2)n1` [Example 39, (2S)-1-[6-(4-Chlorophenyl)-5-(cyclopropylmethoxy)pyridine-2-carbonyl]-4,4-difluoropyrrolidine-2-carboxamide] it was 18 nM; in that of `CC1(F)CN(c2ccc(C(=O)NC3(CC(N)=O)COC3)nc2OCC2CC2)C1` [Example 35, N-[3-(2-Amino-2-oxoethyl)oxetan-3-yl]-6-(cyclopropylmethoxy)-5-(3-fluoro-3-methylazetidin-1-yl)pyridine-2-carboxamide], 213 nM. On the same count and under the same terms, in the case of `CC(C)C[C@H](NC(=O)c1ccc(N2CCC3(C2)CC3(F)F)c(OCC2CC2)n1)C(N)=O` (stereo partly drawn) [Example 30, N-[(2S)-1-Amino-4-methyl-1-oxopentan-2-yl]-6-(cyclopropylmethoxy)-5-(2,2-difluoro-5-azaspiro[2.4]heptan-5-yl)pyridine-2-carboxamide] it was 38.1 nM; in that of `CC(C)C[C@H](NC(=O)c1ccc(N2CC(F)(C3CC3)C2)c(OCC2CC2)n1)C(N)=O` [Example 36, N-[(2S)-1-Amino-4-methyl-1-oxopentan-2-yl]-5-(3-cyclopropyl-3-fluoroazetidin-1-yl)-6-(cyclopropylmethoxy)pyridine-2-carboxamide], 20 nM.

`CCC(CC)(NC(=O)c1ccc(N2CC(OC)C2)c(OCC2CC2)n1)C(=O)NCCF` [Example 25, 6-(Cyclopropylmethoxy)-N-[3-(2-fluoroethylcarbamoyl)pentan-3-yl]-5-(3-methoxyazetidin-1-yl)pyridine-2-carboxamide] yielded an EC50 of 334 nM. `CCC(CC)(NC(=O)c1ccc(-c2ccccc2)c(OCC2CC2)n1)C(=O)NC` [Example 6, 6-(Cyclopropylmethoxy)-N-[3-(methylcarbamoyl)pentan-3-yl]-5-phenylpyridine-2-carboxamide] had an EC50 of 831 nM. On the same count and under the same terms, in the case of `NC(=O)[C@@H]1CC(F)(F)CN1C(=O)c1ccc(N2CCC3(C2)CC3(F)F)c(OCC2CC2)n1` (stereo partly drawn) [Example 31, (2S)-1-[6-(Cyclopropylmethoxy)-5-(2,2-difluoro-5-azaspiro[2.4]heptan-5-yl)pyridine-2-carbonyl]-4,4-difluoropyrrolidine-2-carboxamide] it was 19 nM. The same measure, in the same setting: in the case of `COC1CN(c2ccc(C(=O)N[C@@H](CC3CC3)C(N)=O)nc2OCC2CC2)C1` [Example 10, N-[(2S)-1-amino-3-cyclopropyl-1-oxopropan-2-yl]-6-(cyclopropylmethoxy)-5-(3-methoxyazetidin-1-yl)pyridine-2-carboxamide] it was 63.4 nM; in that of `NC(=O)CC1(NC(=O)c2ccc(N3CCC4(C3)CC4(F)F)c(OCC3CC3)n2)COC1` (stereo not shown) [Example 32, N-[3-(2-Amino-2-oxoethyl)oxetan-3-yl]-6-(cyclopropylmethoxy)-5-(2,2-difluoro-5-azaspiro[2.4]heptan-5-yl)pyridine-2-carboxamide], 60.2 nM; in that of `COC1CN(c2ccc(C(=O)NC(C)(C)c3noc(C)n3)nc2OCC2CC2)C1` [Example 8, 6-(Cyclopropylmethoxy)-5-(3-methoxyazetidin-1-yl)-N-[2-(5-methyl-1,2,4-oxadiazol-3-yl)propan-2-yl]pyridine-2-carboxamide], 86.6 nM. The same measure, in the same setting: with `CC(C)(NC(=O)c1ccc(OCC2CC2)c(-c2cccc(Cl)c2)n1)c1nccs1` [Example 13, 6-(3-Chlorophenyl)-5-(cyclopropylmethoxy)-N-[2-(1,3-thiazol-2-yl)propan-2-yl]pyridine-2-carboxamide] the figure was 23.1 nM; with `COC1CN(c2ccc(C(=O)N[C@@H](CC(C)C)C(N)=O)nc2OCC2CC2)C1` [Example 15, N-[(2S)-1-Amino-4-methyl-1-oxopentan-2-yl]-6-(cyclopropylmethoxy)-5-(3-methoxyazetidin-1-yl)pyridine-2-carboxamide], 21.9 nM; with `CC(C)(NC(=O)c1ccc(N2CC3(COC3)C2)c(OCC2CC2)n1)c1nccs1` [Example 11, 6-(Cyclopropylmethoxy)-5-(2-oxa-6-azaspiro[3.3]heptan-6-yl)-N-[2-(1,3-thiazol-2-yl)propan-2-yl]pyridine-2-carboxamide], 135 nM.

Still in this assay, the particulars now being: CHO cells expressing human CB2 receptors; read-out: cAMP assay human CB2 EC50.
Take `COC1CN(c2ccc(C(=O)NCC3(O)CCCCC3)nc2OCC2CC2)C1` [Example 24, 6-(Cyclopropylmethoxy)-N-[(1-hydroxycyclohexyl)methyl]-5-(3-methoxyazetidin-1-yl)pyridine-2-carboxamide]: the EC50 amounted to 1290 nM.

As to `CCC(CC)(NC(=O)c1ccc(N2CC(OC)C2)c(OCC2CC2)n1)C(=O)NC` [Example 23, 6-(Cyclopropylmethoxy)-5-(3-methoxyazetidin-1-yl)-N-[3-(methylcarbamoyl)pentan-3-yl]pyridine-2-carboxamide], the concentration giving a half-maximal response (EC50) was found to be 47 nM.
